IC50 data for two compounds are collected here from BindingDB's records for doi:10.1097/00001813-200302000-00012 (Korea Research Institute of Chemical Technology, 2003).

The nature of series [1]: TP_TRANSPORTER: drug resistance (paclitaxel) in MES-SA/DX5 cells.
A short description of series [2]: TP_TRANSPORTER: drug resistance (paclitaxel) in HCT15/CL02 cells.

Molecules are shown by their SMILES.

For orientation: IC50 means the concentration at which inhibition is half-maximal.

On to `COc1ccc(CCN(C)CCC[C@]2(C#N)CCc3c2ccc(OC)c3OC)cc1OC`, for which the values for the IC50 in series [1] and in series [2] were 7.65 µM and 3.11 µM, respectively.
`COc1ccc(CCN(C)CCC[C@@]2(C#N)CCc3c2ccc(OC)c3OC)cc1OC`: the IC50 in series [1] was determined as 6.63 µM; in series [2] it was 3.04 µM.
